The source of these data is patent US11028078B2 (The Johns Hopkins University, priority 2011, dated 2021).

Assay [1] has as its system Gli1 transcript. The assay can be described thus: Quantification of Gli1 transcript by TaqMan analysis in MB cells (Hh pathway). In kind it is cell-based, mouse. As to conditions: for Gli I Inhibition (IC90 Prolif. dose): Gli1 transcript fold induction score, MB cells exposed 24 h at the IC90 for MB proliferation; for inhibition of Gli1 transcript levels: established MB cultures, FIG. 9B. An excerpt: Inhibitors of the Hh pathway are known to inhibit MB cell proliferation. However, MB cell proliferation is also affected by drugs with targets other than Hh signaling.
Following drug exposure, cells were washed in PBS and pelleted by centrifugation at 300×g. Cell pellets were lysed in Trizol reagent (Invitrogen). Total RNA was separated and collected in the aqueous phase following centrifugation of lysate in the presence of chloroform. Total RNA was ethanol precipitated and purified over RNeasy Mini Kit (Qiagen) filter columns per manufacturer's recommendations. Transcript levels were quantified using gene-specific TaqMan primer/probe sets and the StepOne Plus Real-Time PCR system (Applied Biosystems) on cDNA reverse transcribed using the QuantiTect Reverse Transcription Kit (Qiagen) per manufacturers' recommendations. Results were quantified using StepOne Plus software v2.1 (Applied Biosystems) and were expressed as fold induction relative to control samples using the A ΔCt (2^−ΔΔCt) method with actin as an internal control. The primer/probe set (Applied Biosystems) for TaqMan PCR for mouse Gli-1 was Mm00494645_m1, and for mouse actin was Mm00607939_s1.
A general note: Quantitative PCR measures a nucleic acid by following its amplification.

Assay [2] relates to HUVEC. Description: HUVEC proliferation assay ([3H]thymidine incorporation). It is filed as cell-based, human. As to conditions: for Proliferation (IC50/IC50 Itra) / IC50: HUVEC; for Proliferation (IC50/IC50 Itra): IC50 of analog relative to IC50 of itraconazole; for IC50: Homo sapiens, Table 5, read-out: Activity in HUVEC Proliferation IC50; for inhibition of HUVEC proliferation: data not shown. The method, then:
The activity of the analogs against HUVEC proliferation, an in vitro proxy for angiogenesis inhibition (Table 3) was analyzed. […]
Pooled HUVEC (Lonza) were grown in EGM-2 bullet kit media (Lonza) and used at passage eight or lower. The proliferation assays were conducted as previously described (Nacev, B.; Low, W. K.; Huang, Z.; Su, T.; Su, Z.; Alkuraya, H.; Kasuga, D.; Sun, W.; Trager, M.; Braun, M.; Fischer, G.; Zhang, K.; Liu, J. O., Acalcineurin-independent mechanism of angiogenesis inhibition by anon-immunosuppressive Cyclosporin Aanalog. J. Pharmacol. Exp. Ther. 2011, DOI:10.1124/jpet.111.18085).
(Dividing cells build labelled thymidine or BrdU into new DNA.)

Assay [3] concerns MB cultures derived from Ptch−/+; p53−/− mice. The assay can be described thus: Medulloblastoma (MB) proliferation assay. In kind it is cell-based, mouse. To be noted: for MB Proliferation (IC50/IC50 Itra): mouse medulloblastoma cultures, 96 h, relative to itraconazole; for inhibition of MB proliferation: FIG. 9A. An excerpt: These cultures were derived from Ptch^−/+; p53^−/− mice that spontaneously develop medulloblastoma associated with ligand independent Hh pathway activation.
MB cultures were derived from mouse Ptch^−/+; p53^−/− MB grown as hind-flank allografts in nude mice (Harlan). Briefly, tumors were mechanically disrupted and made into single cell suspensions by two passages through a 70 μm nylon filter. Cells were pelleted by centrifugation and resuspended in PBS pH 7.4 twice. The cell suspension was then subjected to centrifugation at 1000×g for 25 min over a ficoll gradient. The viable cell layer formed at the ficoll boundary was then collected, suspended in PBS, and pelleted by centrifugation. The resulting pellet was then suspended and cultured as “neurospheres” in Neurobasal Media-A supplemented with retinoic acid deficient B-27 extract (NBMedia). Cells were cultured for three passages, with neurospheres disaggregated using Accumax (Innovative Cell Technologies) between passages.
Cultured MB neurospheres were disaggregated as described and 1×10^4 cells were seeded into wells of a 96-well assay plate in NBMedia and exposed to multiple analogue concentrations: Relative cell numbers following a 96-h incubation were quantified by CellTiter 96® AQueous One Solution Cell Proliferation Assay (Promega) per manufacturer's recommendations using a SpectraMax M2e spectrophotometer and SoftMax Pro software (Molecular Devices). Data was analyzed using Prism5 (GraphPad Software) and IC50 and IC90 values were determined from dose-response curves fitted to mean corrected absorbance normalized to control treatment.

Assay [4] relates to VEGFR2. The assay can be described thus: VEGFR2 glycosylation in HUVEC (Western blot scoring). It is filed as cell-based, human. To be noted: for Glycosylation (2 μM dose): VEGFR2 hypoglycosylation score in HUVEC, 24 h; for VEGFR2 glycosylation defect: data not shown. The method, then:
VEGFR2 hypoglycosylation was scored either robust (++), intermediate (+), or absent (−) (FIG. 6).
HUVEC were seeded at 5×10^4 per well of a 6-well plate in 3 mL of media. After an overnight recovery, the media was replaced with 2 mL fresh media and the analogs were added from 200× stocks in DMSO. Following a 24-h incubation, the media was aspirated and 2×SDS sample buffer was added to the cells which were incubated on ice for 10 min and then boiled for 10 min. […] Following three washes in TBS-T, the membrane was incubated with anti-rabbit horseradish peroxidase conjugated IgG (GE Healthcare) (1:5000-1:10000 dilution) in 1% BSA in TBS-T. The membranes were washed three times in TBS-T, incubated for 1-5 minutes with ECL substrate (Immobilon Wester, Milipore) and visualized (Kodak Image Staion 440 CF).

As for `Cn1ncn(-c2ccc(N3CCN(c4ccc(OC[C@@H]5CO[C@@](Cn6cncn6)(c6ccc(Cl)cc6Cl)O5)cc4)CC3)cc2)c1=O` (relative stereo) [Compound 7a, cis-(2S,4R)-4-[4-[4-[4-[[2-(2,4-Dichlorophenyl)-2-(UH-1,2,4-triazol-1-ylmethyl)-1,3-dioxolan-4-yl]methoxy]phenyl]-lpiperazinyl]phenyl]-2,4-dihydro-2-methyl-3H-1,2,4-triazol-3-one], in assay [1], the “Gli I Inhibition (IC90 Prolif. dose)” value was “− (≥0.45)”. Further, in assay [2], the “Proliferation (IC50/IC50 Itra)” value was 4.00. Further, the “MB Proliferation (IC50/IC50 Itra)” value in assay [3] is 2.71. Also, the “Glycosylation (2 μM dose)” value in assay [4] was “−”.

For the compound `CCn1ncn(-c2ccc(N3CCN(c4ccc(OC[C@@H]5CO[C@@](Cn6cncn6)(c6ccc(Cl)cc6Cl)O5)cc4)CC3)cc2)c1=O` (relative stereo) [Compound 7b, cis-(2S,4R)-4-[4-[4-[4-[[2-(2,4-Dichlorophenyl)-2-(1H-1,2,4-triazol-1-ylmethyl)-1,3-dioxolan-4-yl]methoxy]phenyl]-lpiperazinyl]phenyl]-2,4-dihydro-2-ethyl-3H-1,2,4-triazol-3-one], the “Gli I Inhibition (IC90 Prolif. dose)” value in assay [1] is recorded as “− (≥0.45)”. The “Proliferation (IC50/IC50 Itra)” value in assay [2] is recorded as 2.94. For the same compound, the “MB Proliferation (IC50/IC50 Itra)” value in assay [3] stood at 1.62. For the same compound, the “Glycosylation (2 μM dose)” value in assay [4] is on record as “−”.

Turning to `CCCn1ncn(-c2ccc(N3CCN(c4ccc(OC[C@@H]5CO[C@@](Cn6cncn6)(c6ccc(Cl)cc6Cl)O5)cc4)CC3)cc2)c1=O` (relative stereo) [Compound 7c, cis-(2S,4R)-4-[4-[4-[4-[[2-(2,4-Dichlorophenyl)-2-(1H-1,2,4-triazol-1-ylmethyl)-1,3-dioxolan-4-yl]methoxy]phenyl]-lpiperazinyl]phenyl]-2,4-dihydro-2-propyl-3H-1,2,4-triazol-3-one], the “Gli I Inhibition (IC90 Prolif. dose)” value in assay [1] was “++ (≤0.15)”. For the same compound, the “Proliferation (IC50/IC50 Itra)” value in assay [2] is reported as 1.06. Moreover, in assay [3], the “MB Proliferation (IC50/IC50 Itra)” value is listed as 1.01. The “Glycosylation (2 μM dose)” value in assay [4] is on record as “+”.

Consider `CC(C)n1ncn(-c2ccc(N3CCN(c4ccc(OC[C@@H]5CO[C@@](Cn6cncn6)(c6ccc(Cl)cc6Cl)O5)cc4)CC3)cc2)c1=O` (relative stereo) [Compound 7d, cis-(2S,4R)-4-[4-[4-[4-[[2-(2,4-Dichlorophenyl)-2-(1H-1,2,4-triazol-1-ylmethyl)-1,3-dioxolan-4-yl]methoxy]phenyl]-lpiperazinyl]phenyl]-2,4-dihydro-2-isopropyl-3H-1,2,4-triazol-3-one], for which the “Gli I Inhibition (IC90 Prolif. dose)” value in assay [1] is on record as “− (≥0.45)”. In assay [2], the “Proliferation (IC50/IC50 Itra)” value turned out to be 2.18. Further, the “MB Proliferation (IC50/IC50 Itra)” value in assay [3] was determined as 1.06. Besides, in assay [4], the “Glycosylation (2 μM dose)” value is “−”.

For `CCCCn1ncn(-c2ccc(N3CCN(c4ccc(OC[C@@H]5CO[C@@](Cn6cncn6)(c6ccc(Cl)cc6Cl)O5)cc4)CC3)cc2)c1=O` (relative stereo) [Compound 7e, cis-(2S,4R)-4-[4-[4-[4-[[2-(2,4-Dichlorophenyl)-2-(1H-1,2,4-triazol-1-ylmethyl)-1,3-dioxolan-4-yl]methoxy]phenyl]-lpiperazinyl]phenyl]-2,4-dihydro-2-butyl-3H-1,2,4-triazol-3-one], the “Gli I Inhibition (IC90 Prolif. dose)” value in assay [1] is listed as “− (≥0.45)”. The “Proliferation (IC50/IC50 Itra)” value in assay [2] worked out at 2.10. Also, the “MB Proliferation (IC50/IC50 Itra)” value in assay [3] is listed as 0.70. In assay [4], the “Glycosylation (2 μM dose)” value is “−”.

Turning to `CC(C)Cn1ncn(-c2ccc(N3CCN(c4ccc(OC[C@@H]5CO[C@@](Cn6cncn6)(c6ccc(Cl)cc6Cl)O5)cc4)CC3)cc2)c1=O` (relative stereo) [Compound 7f, cis-(2S,4R)-4-[4-[4-[4-[[2-(2,4-Dichlorophenyl)-2-(H,2,4-triazol-1-ylmethyl)-1,3-dioxolan-4-yl]methoxy]phenyl]-lpiperazinyl]phenyl]-2,4-dihydro-2-isobutyl-3H-1,2,4-triazol-3-one], in assay [1], the “Gli I Inhibition (IC90 Prolif. dose)” value is “− (≥0.45)”. In addition, the “Proliferation (IC50/IC50 Itra)” value in assay [2] is on record as 1.32. In addition, in assay [3], the “MB Proliferation (IC50/IC50 Itra)” value came out at 0.86. Also, in assay [4], the “Glycosylation (2 μM dose)” value is given as “++”.

For the compound `O=C(c1ccccc1)c1ccc(OCCCCCCn2ncn(-c3ccc(N4CCN(c5ccc(OCC6COC(Cn7cncn7)(c7ccc(Cl)cc7Cl)O6)cc5)CC4)cc3)c2=O)cc1` [Compound 7q, cis-(2S,4R)-4-[4-[4-[4-[[2-(2,4-Dichlorophenyl)-2-(1H-1,2,4-triazol-1-ylmethyl)-1,3-dioxolan-4-yl]methoxy]phenyl]-piperazinyl]phenyl]-2,4-dihydro-2-(6-(4-benzoylphenoxy)hexyl)-3H-1,2,4-triazol-3-one], in assay [1], the “Gli I Inhibition (IC90 Prolif. dose)” value is reported as “− (≥0.45)”. For the same compound, the “MB Proliferation (IC50/IC50 Itra)” value in assay [3] is 0.8. For the same compound, the “Glycosylation (2 μM dose)” value in assay [4] was “−”.

Turning to `CCC(C)n1ncn(-c2ccc(N3CCN(c4ccc(OCC5CO[C@@](Cn6cncn6)(c6ccc(Cl)cc6Cl)O5)cc4)CC3)cc2)c1=O` (stereo partly drawn) [Compound 46a], in assay [2], the IC50 worked out at 155 nM.

Turning to `CCC(C)n1ncn(-c2ccc(N3CCN(c4ccc(OCC5CO[C@](Cn6cncn6)(c6ccc(Cl)cc6Cl)O5)cc4)CC3)cc2)c1=O` (stereo partly drawn) [Compound 46b], in assay [2], the IC50 was determined as 236 nM.

Turning to `CCC(C)n1ncn(-c2ccc(N3CCN(c4ccc(OCC5CO[C@@](Cn6cncn6)(c6ccc(Cl)cc6Cl)O5)nc4)CC3)c(C)c2)c1=O` (stereo partly drawn) [Compound 47a], in assay [2], the IC50 amounted to 155 nM.

Take `CS(=O)(=O)c1ccc(C(=O)Nc2ccc(Cl)c(-c3ccccn3)c2)c(Cl)c1` [GDC-0449, reference compound]: the “inhibition of Gli1 transcript levels” value in assay [1] is “Dose-dependent inhibition”. Further, the “inhibition of MB proliferation” value in assay [3] is on record as “Dose-dependent inhibition”.

`CC[C@@H](C)n1ncn(-c2ccc(N3CCN(c4ccc(OCC5CO[C@@](Cn6cncn6)(c6ccc(Cl)cc6Cl)O5)cc4)CC3)cc2)c1=O` (stereo partly drawn) [Itraconazole C, reference compound]: the IC50 in assay [2] was determined as 152 nM.

As for `CC(=O)N1CCN(c2ccc(OCC3COC(Cn4ccnc4)(c4ccc(Cl)cc4Cl)O3)cc2)CC1` (stereo not drawn) [ketoconazole, reference compound], the “inhibition of HUVEC proliferation” value in assay [2] is listed as “do not inhibit proliferation”. In assay [4], the “VEGFR2 glycosylation defect” value is “fail to induce the VEGFR2 glycosylation defect”.

With `CC(C)N1CCN(c2ccc(OCC3COC(Cn4cncn4)(c4ccc(Cl)cc4Cl)O3)cc2)CC1` (stereo not drawn) [terconazole, reference compound], in assay [2], the “inhibition of HUVEC proliferation” value is “do not inhibit proliferation”. For the same compound, the “VEGFR2 glycosylation defect” value in assay [4] is on record as “fail to induce the VEGFR2 glycosylation defect”.

Consider HhAntag [reference compound], for which the “inhibition of Gli1 transcript levels” value in assay [1] is “Dose-dependent inhibition”. In addition, in assay [3], the “inhibition of MB proliferation” value is given as “Dose-dependent inhibition”.
